Source: the METLIN SMRT retention time set (Domingo-Almenara et al. 2019)

Test: gradient 5% acetonitrile 3 min, to 50% in 2 min, to 85% in 15 min, held 3 min, 100 µL/min
Conditions: column: Zorbax Extend-C18 2.1 x 50 mm; eluents: water / acetonitrile, 0.1% formic acid
In short: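 In both positive and negative ionization mode, a quadrupole time-of-flight mass spectrometer coupled to HPLC analyzed pure standards run in mixtures of ~100 molecules. The Zorbax Extend-C18 column (2.1 × 50 mm, 1.8 μm) was operated at 100 μL/min with water and acetonitrile, each containing 0.1% formic acid. The dead volume was 40 μL and the dwell volume 900 μL. Retention time came from adduct peaks that were computationally picked and individually inspected by hand.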

SMILES	RP-LC retention time [s]
O=C(Nc1cc(-c2ccsc2)no1)c1ccc(F)c(F)c1	982
O=C(NCCN1CCCC1)c1cccc(N2CCNC(c3ccccc3)C2)n1 (stereo unspecified)	553
Cn1c(N2CCCC(C(=O)Nc3ccccc3)C2)cc(=O)n(C)c1=O (stereo unspecified)	649
Cc1cnc(-c2ccncc2)n1CC1CCN(S(=O)(=O)c2ccc3c(c2)OCCO3)C1 (stereo unspecified)	626
COc1ccc(CNC(=O)C2CCN(c3nc(C4CCC4)nc4csc(C)c34)CC2)cc1OC	957
CSc1ccccc1C(=O)NCC1(c2ccc(F)cc2)CC1	875
COc1ccc(Nc2ncccc2S(N)(=O)=O)cc1	712
Cn1nc2n(c1=O)CCN(S(=O)(=O)Cc1ccccc1)CC2	659
COc1ccc(NC(=O)N2c3ccccc3CC2c2nc(C(C)C)no2)c(C)c1 (stereo unspecified)	1220
Cc1ccc2c(=O)c(C(=O)N3CCCC3)cn(CC(=O)Nc3ccccc3C)c2n1	692
CCOC(=O)c1oc2ccc(S(=O)(=O)N3CCC(c4ccncc4)CC3)cc2c1C	730
COc1ccc(N2CC(c3nc(-c4ccc(CNC(=O)C5CC5)s4)no3)CC2=O)cc1 (stereo unspecified)	748
O=C(CN1C(=O)COc2ccc(C(=O)N3CCCC3)cc21)NCCCc1ccccc1	747
COc1cccc(COc2coc(C(=O)Nc3nnc(C)s3)cc2=O)c1	660
FC(F)(F)c1cccc(Nc2c(-c3ccc(Cl)cc3)nc3cnccn23)c1	1090
Cc1noc(-c2ccnc(-n3cnc(C(=O)NCCC(C)C)c3)c2)n1	849
Cc1ccccc1S(=O)(=O)N1CC[C@@H]2CN(Cc3cccnc3)[C@@H]2C1	598
O=C(Nc1ccc(-n2cnnn2)cc1)C1CN(c2nc3ccccc3s2)C1	659
CC(C)n1cnc2cc(CNC(=O)C3(c4ccccc4)CC3)ccc21	648
COc1ccccc1-c1coc2cc(OC(=O)c3cccs3)ccc2c1=O	992
Cn1nccc1-c1cccc(-c2noc(-c3cc(Cl)ccc3F)n2)c1	1210
CCn1c(=O)c(N2CCN(C(=O)Nc3ccccc3Br)CC2)nc2cccnc21	991

SMILES	RP-LC retention time [s]
CC(C)(C)C(=O)Nc1ccc2nc(N3CCN(CC(=O)N4CCCCCC4)CC3)cc(C(=O)O)c2c1	603
COc1cccc(CNC(=O)c2cc3c(=O)n(C)ccc3n2C)c1	663
Nc1ccc(C(=O)c2ccccc2)cc1[N+](=O)[O-]	783
COc1ccc(-c2cn3c(CC(=O)Nc4ccc(C(F)(F)F)cc4)csc3n2)cc1OC	846
CN(Cc1cccs1)C(=O)Nc1ccccc1	833
Cc1nccn1C1CN(C(=O)C2CCCCC2)C1	572
CCn1ccc2ccc(CCC(=O)N3CCN(c4ccc(F)cc4)CC3)cc21	1030
COc1cc(NC(=O)c2noc3c2CC(C)CC3)cc(OC)c1OC (stereo unspecified)	932
COC(=O)c1ccc(NC(=O)C2(C)Oc3cccnc3N(C(C)C)C2=O)cc1 (stereo unspecified)	991
Cc1cccc(NC(=O)N2CCN(c3nc4ccccc4nc3C(F)(F)F)CC2)c1C	1100
O=C(NCc1ccco1)c1ccc2c(c1)N(C(=O)c1ccc(F)cc1)CC2	823
CCNc1nc(C)cc(N2CCN(S(=O)(=O)c3cc(C(C)C)ccc3C)CC2)n1	838
CC(C)Cc1ccc(S(=O)(=O)N2C[C@@H](F)C[C@H]2C(=O)N2CCc3ccccc3C2)cc1	1120
Cc1noc(-c2ccnc(SCC(=O)Nc3cccc(C(F)(F)F)c3)c2)n1	933
O=C(NCc1ccc(F)cc1)C(=O)NCC(c1ccc2c(c1)OCO2)N1CCOCC1 (stereo unspecified)	648
O=C1CC(C(=O)N2CCc3ccccc32)CN1CCc1c[nH]c2ccc(F)cc12 (stereo unspecified)	1270
COc1ccc(C2C(C(=O)NCCN(C)C)c3cc(OC)c(OC)cc3C(=O)N2C)cc1 (stereo unspecified)	597
O=C(C1CCC1)N1CCC2(CC1)NCCc1c2[nH]c2ccccc12	628
CC1=C(c2ccc(C)cc2)S(=O)(=O)N=C1N1CCCN(C(=O)c2ccc(F)cc2)CC1	859
O=C1NCN(c2ccccc2)C12CCN(CC1COc3ccccc3O1)CC2 (stereo unspecified)	736
CCOC(=O)c1c(NCCc2c[nH]c3ccccc23)c2ccc(Cl)cc2[nH]c1=O	833
CN1C(=O)c2cccn2CC1C(=O)Nc1ccccc1F (stereo unspecified)	673

SMILES	RP-LC retention time [s]
O=C(Cc1csc2nc(-c3ccccc3)cn12)NCc1ccccc1Cl	832
COc1ccccc1N1CCN(S(=O)(=O)c2cc(-c3nc(C(C)C)cs3)sc2C)CC1	1410
Cc1ccc(-c2nc(C3CC(=O)N(c4ccc(Cl)cc4)C3)no2)cc1 (stereo unspecified)	978
COc1ccc(C2(CNC(=O)C(=O)Nc3ccc(N4CCCC4=O)c(C)c3)CCCC2)cc1	909
Cn1c2ccccc2c2cnn(CC(=O)N3CCN(c4ccccn4)CC3)c(=O)c21	943
O=C(C1CCN(c2cnc3nccnc3c2)CC1)N1CCN(c2ccccc2)CC1	718
COc1ccc(N2CCN(CCNC(=O)C3CCCN(c4cc(=O)n(C)c(=O)n4C)C3)CC2)cc1 (stereo unspecified)	583
O=C(NC1CC1)C1CCN(Cc2cc3ccccc3n2Cc2ccccc2)CC1	694
Cc1ccc(-c2nc(-c3cccc(-c4ccn[nH]4)c3)no2)cc1	1090
CCOC(=O)c1cc(S(=O)(=O)N2CCN(c3cccc(C)c3)C(C)C2)c(C)n1C (stereo unspecified)	1090
FC1(F)CN[C@H](c2nc(-c3cccnc3)no2)C1	621
CCC(C)NC(=O)Cn1nc2c3cc(-c4ccc(F)cc4)nn3ccn2c1=O (stereo unspecified)	764
CC(C)(C)NC(=O)NC1CCN(C(=O)C2CCC2)C1 (stereo unspecified)	636
CC(C)CCNC(=O)c1nnc(-c2ccc(S(=O)(=O)N3CCOCC3)cc2)o1	851
Cn1nccc1-c1cccc(-c2noc(-c3cccc(C#N)c3)n2)c1	1030
Fc1cccc(-c2noc(-c3ccc(N4CCN(c5ncccn5)CC4)nc3)n2)c1	1230
CCCN1C(=O)c2c(C(=O)NCc3ccccc3)ncn2CC1(C)C(=O)NC1CCCC1 (stereo unspecified)	756
Cc1nc(-c2csc(S(=O)(=O)N3CCCC(C(=O)Nc4cccc5c4CCCC5)C3)c2)no1 (stereo unspecified)	1110
CCCNC(=O)C1CCCN(c2ccc(SCC(=O)NCc3ccccc3Cl)nn2)C1 (stereo unspecified)	661
COc1ccc(-c2cn3c(CC(=O)N(Cc4ccco4)C4CCCCC4)csc3n2)cc1OC	890
CNC(=O)C1CCCN(c2nc3ncn(CC(=O)Nc4ccccc4F)c(=O)c3s2)C1 (stereo unspecified)	634
O=C(Cc1ccc(NC(=O)C2CC2)cc1)NCc1cccs1	659
